In patent US8314092B2, “Substituted [(5H-pyrrolo[2,1-c][1,4]benzodiazepin-11-yl)piperazin-1-yl]-2,2-dimethylpropanoic acid compounds as dual activity H1 inverse agonists/5-HT2A antagonists” (Eli Lilly and Company, priority 2011, dated 2012):
pKi: −log10 of the molar value. Structures can show the parent of a compound that is named as a salt.

Legend:
Wistar rats = assay: Sleep and behavioral monitoring in rats (EEG, EMG, motion); type: in vivo; details: rat, 3 mg/kg
Method: Sleep and behavioral monitoring in rats: Representative compounds of the present invention are tested in rats for their ability to increase the amount of sleep or decrease sleep interruption or both without undesired effects such as inhibition of REM sleep, waking motor impairment, and/or rebound insomnia. Test animals are continuously monitored by electro-encephalograms (EEG), electromyograms (EMG), and motion to measure cumulative nonREM sleep, cumulative total sleep, average sleep bout duration, longest sleep bout duration, rebound insomnia, REM sleep inhibition and locomotor activity intensity during wakefulness. Methods for such studies are known in the art (see for example methods described in Edgar D M, Seidel W F. Modafinil induces wakefulness without intensifying motor activity or subsequent rebound hypersomnolence in the rat. J Pharmacology & Experimental Therapeutics 1997; 283: 757-769; van Gelder R N, Edgar D M, Dement W C. Real-time automated sleep scoring: validation of a microcomputer-based system for mice. Sleep 1991, 14: 48-55; and Gross B A, Walsh C M, Turakhia A A, Booth V, Mashour G A, Poe G R. Open-source logic-based automated sleep scoring software using electrophysiological recordings in rats. J Neurosci Methods. 2009; 184(1):10-8.) Studies are conducted as follows: Animal preparation. Adult, male Wistar rats (approximately 270-300 g at time of surgery) are surgically fitted for chronic recording of EEG, EMG, and motion as follows: Rats are surgically prepared with a cranial implant consisting of four stainless steel screws for EEG recording (two frontal [3.9 mm anterior from bregma, and ±2.0 mm mediolaterally] and two occipital [6.4 mm posterior from bregma, ±5.5 mm mediolaterally]), and with two Teflon-coated stainless steel wires for EMG recording (positioned under the nuchal trapezoid muscles). All leads are soldered to a miniature connector (Microtech, Boothwyn, Pa.) prior to surgery. The implant assembly is affixed to the skull by the combination of the stainless steel EEG recording screws, cyanoacrylate applied between the implant connector and skull, and dental acrylic. Locomotor activity is monitored via a miniature transmitter (Minimitter PDT4000G, Philips Respironics, Bend, Oreg.) surgically placed into the abdomen. At least 3 weeks are allowed for recovery. Recording environment. Each rat is housed individually within a microisolator cage modified with an inserted polycarbonate filter-top riser to allow more vertical headroom. A flexible cable that minimally restricts movement is connected at one end to a commutator affixed to the cage top and at the other end to the animal's cranial implant. Each cage is located within separate, ventilated compartments of a stainless steel sleep-wake recording chamber. Food and water are available ad libitum and the ambient temperature is maintained at about 23±1° C. A 24-hr. light-dark cycle (LD 12:12) using fluorescent light is maintained throughout the study. Relative humidity averages approximately 50%. Animals are undisturbed for at least 30 hrs before and after each treatment. Study design and dosing. The vehicle (placebo, methylcellulose 15 centipoise 0.25% in water) or one of the test compound dose levels is administered orally at 1 mL/kg pseudo-randomly such that no rat receives the same treatment twice, and no rat receives more than two of the 8 treatments in any one study. Each rat is removed from its cage for about a minute to be weighed and treated. At least 6 days “washout” period precede and follow each treatment. Data collection. […]

hERG channel = hERG channel (Homo sapiens, UniProt Q12809); assay: hERG channel assay
Chain of hERG channel (Q12809 whole entry): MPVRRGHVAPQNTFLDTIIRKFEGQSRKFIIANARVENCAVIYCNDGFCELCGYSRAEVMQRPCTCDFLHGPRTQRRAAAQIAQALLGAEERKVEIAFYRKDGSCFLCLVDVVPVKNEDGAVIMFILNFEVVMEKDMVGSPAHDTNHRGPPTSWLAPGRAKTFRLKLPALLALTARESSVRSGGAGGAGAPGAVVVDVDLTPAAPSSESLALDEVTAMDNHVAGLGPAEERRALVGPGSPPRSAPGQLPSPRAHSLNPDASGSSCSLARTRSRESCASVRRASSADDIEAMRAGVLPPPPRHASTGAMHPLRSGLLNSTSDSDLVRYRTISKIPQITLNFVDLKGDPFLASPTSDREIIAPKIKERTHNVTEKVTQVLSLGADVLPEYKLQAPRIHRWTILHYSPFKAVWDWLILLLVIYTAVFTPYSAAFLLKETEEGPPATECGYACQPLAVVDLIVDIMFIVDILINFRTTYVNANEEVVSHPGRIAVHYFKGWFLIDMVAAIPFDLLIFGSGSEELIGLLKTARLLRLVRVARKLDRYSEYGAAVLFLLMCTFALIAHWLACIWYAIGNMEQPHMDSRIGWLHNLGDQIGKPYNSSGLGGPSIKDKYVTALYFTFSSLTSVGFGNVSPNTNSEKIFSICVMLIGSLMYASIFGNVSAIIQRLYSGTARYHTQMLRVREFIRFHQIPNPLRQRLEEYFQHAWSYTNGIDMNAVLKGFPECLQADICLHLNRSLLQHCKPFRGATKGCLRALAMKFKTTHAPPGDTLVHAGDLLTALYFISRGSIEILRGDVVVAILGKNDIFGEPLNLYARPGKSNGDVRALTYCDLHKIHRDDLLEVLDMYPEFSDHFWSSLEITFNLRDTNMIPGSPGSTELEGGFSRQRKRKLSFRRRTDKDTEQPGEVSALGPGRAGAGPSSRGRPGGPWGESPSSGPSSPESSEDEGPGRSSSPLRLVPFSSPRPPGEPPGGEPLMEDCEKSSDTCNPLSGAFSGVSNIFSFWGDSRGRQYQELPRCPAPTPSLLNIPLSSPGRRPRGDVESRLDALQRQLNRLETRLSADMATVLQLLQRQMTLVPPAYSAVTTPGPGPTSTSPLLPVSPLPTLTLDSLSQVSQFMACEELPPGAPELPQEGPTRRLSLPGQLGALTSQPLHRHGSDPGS
Source text: (§1) Further, the compounds of the invention may be tested in binding assays and functional activity assays by well known methods for other physiologically important receptors such as, but not limited to, the hERG channel, other serotonin receptors (specifically 5-HT1A, 5-HT1B, 5-HT1D, 5-HT1E, 5-HT1F receptors, lack of agonist activity at 5-HT2B receptors, 5-HT2C, 5-HT4, 5-HTS, 5-HT6, and 5-HT7 receptors), muscarinic receptors, dopaminergic receptors (specifically D1, D2, and D3), GABAA receptors, adrenergic receptors and monoamine transporters. Certain exemplified compounds are tested at these receptors and are shown to lack significant activity.

5-HT6 = 5-HT6 (Homo sapiens, UniProt P50406); assay: 5-HT6 binding
Source text: as §1

Adrenergic alpha1B = Adrenergic alpha1B (Homo sapiens, UniProt P35368); assay: Adrenergic alpha1B binding
Chain of Adrenergic alpha1B (P35368 whole entry): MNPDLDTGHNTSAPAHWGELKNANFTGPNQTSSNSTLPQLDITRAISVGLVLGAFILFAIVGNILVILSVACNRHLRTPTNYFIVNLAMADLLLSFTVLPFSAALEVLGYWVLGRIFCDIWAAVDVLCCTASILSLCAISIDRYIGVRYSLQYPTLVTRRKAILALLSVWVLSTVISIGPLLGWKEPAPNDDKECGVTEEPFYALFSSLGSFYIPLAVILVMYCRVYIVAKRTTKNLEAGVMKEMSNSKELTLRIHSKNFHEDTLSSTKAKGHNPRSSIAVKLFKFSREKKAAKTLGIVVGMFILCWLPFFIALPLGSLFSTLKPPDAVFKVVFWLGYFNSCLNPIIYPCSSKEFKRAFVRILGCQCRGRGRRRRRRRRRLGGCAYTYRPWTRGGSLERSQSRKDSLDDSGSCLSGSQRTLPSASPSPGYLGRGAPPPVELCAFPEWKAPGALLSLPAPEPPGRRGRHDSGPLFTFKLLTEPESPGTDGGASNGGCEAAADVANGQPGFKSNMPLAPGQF
Source text: as §1

Dopamine D2 = Dopamine D2 (Homo sapiens, UniProt P14416); assay: Dopamine D2 binding
Chain of Dopamine D2 (P14416 whole entry): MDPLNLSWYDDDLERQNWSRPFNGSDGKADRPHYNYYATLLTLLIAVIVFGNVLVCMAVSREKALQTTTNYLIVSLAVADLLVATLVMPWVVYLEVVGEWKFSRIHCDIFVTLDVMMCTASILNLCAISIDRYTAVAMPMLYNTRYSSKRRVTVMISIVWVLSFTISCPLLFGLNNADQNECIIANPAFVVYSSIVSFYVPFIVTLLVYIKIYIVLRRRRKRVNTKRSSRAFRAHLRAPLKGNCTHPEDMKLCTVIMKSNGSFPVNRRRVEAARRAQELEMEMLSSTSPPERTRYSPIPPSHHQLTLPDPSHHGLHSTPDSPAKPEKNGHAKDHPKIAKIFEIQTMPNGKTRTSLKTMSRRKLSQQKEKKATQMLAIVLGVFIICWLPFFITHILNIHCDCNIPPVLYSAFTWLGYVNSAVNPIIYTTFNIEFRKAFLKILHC
Source text: as §1

Dopamine D3 = Dopamine D3 (Homo sapiens, UniProt P35462); assay: Dopamine D3 binding
Source text: as §1

[1] = biological target: T1, recombinant 5-HT2A receptor (human) (Homo sapiens, UniProt P28223); assay: 5-HT2A competition binding assay ([3H]-Ketanserin SPA)
T1 construct: expressed in transfected cells
Method: [^3H]-Ketanserin binding experiments are carried out in SPA 96-well format. Membranes used in this assay are prepared from AV-12 cells stably expressing recombinant 5-HT2A receptor (human). The incubation is initiated by the addition of a mixture of WGA YSi SPA beads (1 mg/well, Perkin Elmer (MA, USA), RPNQ0011) and 2 μg membranes to assay buffer (67 mM Tris, 0.5 mM EDTA; pH 7.6) containing 3.1 nM [^3H]-Ketanserin and varying concentrations of the test compound (10 point concentration response curves). Non-specific binding is determined in the presence of 20 μM 1-(1-Naphthyl)piperazine. Samples were incubated for four hours at room temperature (22° C.) and then read in a Microbeta Trilux.
(§2) Curves are evaluated using a 4-parameter logistic nonlinear equation to obtain the concentration of competitor causing 50% inhibition of radioligand binding (IC50). Equilibrium dissociation constants (Ki) are calculated according to the equation Ki=IC50/(1+L/Kd), where L equals the concentration of radioligand used in the experiment and Kd equals the equilibrium dissociation constant of the radioligand for the receptor, determined from standard saturation analysis or homologous competition experiments. Reported values for Ki, where n values are indicated, are shown as geometric mean±the standard error of the mean (SEM), with the number of replicate determinations indicated by n. […]

Adrenergic alpha1A = Adrenergic alpha1A (Homo sapiens, UniProt P35348); assay: Adrenergic alpha1A binding
Source text: as §1

5-HT5 = 5-HT5 (Homo sapiens, UniProt P47898); assay: 5-HT5 binding
Source text: as §1

[2] = biological target: T2, recombinant 5-HT2c receptor (human) (Homo sapiens, UniProt P28335); assay: 5-HT2c competition binding assay ([125I]-DOI SPA)
T2 construct: expressed in transfected cells
Method: [^125I]-(±)DOI binding experiments are carried out in SPA 96-well format. Membranes used in this assay are prepared from AV-12 cells stably expressing recombinant 5-HT2c receptor (human). The incubation is initiated by the addition of a mixture of WGA PVT SPA beads (0.5 mg/well, Perkin Elmer (MA, USA), RPNQ0001) and 2.5 μg membranes to assay buffer (50 mM Tris-HCl, 10 mM MgCl2, 0.5 mM EDTA, 10 μM pargyline, 0.1% ascorbic acid, pH7.4) containing 0.2 nM [[^125I]-(±)DOI and varying concentrations of the test compound (10 point concentration response curves). Non-specific binding is determined in the presence of 20 μM 1-(1-Naphthyl)piperazine. Samples are incubated for four hours at room temperature (22° C.) and then read in a Microbeta Trilux.
Curves are evaluated using a 4-parameter logistic nonlinear equation to obtain the concentration of competitor causing 50% inhibition of radioligand binding (IC50). Equilibrium dissociation constants (Ki) are calculated according to the equation Ki=IC50/(1+L/Kd), where L equals the concentration of radioligand used in the experiment and Kd equals the equilibrium dissociation constant of the radioligand for the receptor, determined from standard saturation analysis or homologous competition experiments. […]

Serotonin Transporter = Serotonin Transporter (Homo sapiens, UniProt P31645); assay: Serotonin transporter assay; type: binding
Source text: as §1

Norepinephrine Transport = Norepinephrine Transport (Homo sapiens, UniProt P23975); assay: Norepinephrine transporter assay; type: binding
Chain of Norepinephrine Transport (P23975 whole entry): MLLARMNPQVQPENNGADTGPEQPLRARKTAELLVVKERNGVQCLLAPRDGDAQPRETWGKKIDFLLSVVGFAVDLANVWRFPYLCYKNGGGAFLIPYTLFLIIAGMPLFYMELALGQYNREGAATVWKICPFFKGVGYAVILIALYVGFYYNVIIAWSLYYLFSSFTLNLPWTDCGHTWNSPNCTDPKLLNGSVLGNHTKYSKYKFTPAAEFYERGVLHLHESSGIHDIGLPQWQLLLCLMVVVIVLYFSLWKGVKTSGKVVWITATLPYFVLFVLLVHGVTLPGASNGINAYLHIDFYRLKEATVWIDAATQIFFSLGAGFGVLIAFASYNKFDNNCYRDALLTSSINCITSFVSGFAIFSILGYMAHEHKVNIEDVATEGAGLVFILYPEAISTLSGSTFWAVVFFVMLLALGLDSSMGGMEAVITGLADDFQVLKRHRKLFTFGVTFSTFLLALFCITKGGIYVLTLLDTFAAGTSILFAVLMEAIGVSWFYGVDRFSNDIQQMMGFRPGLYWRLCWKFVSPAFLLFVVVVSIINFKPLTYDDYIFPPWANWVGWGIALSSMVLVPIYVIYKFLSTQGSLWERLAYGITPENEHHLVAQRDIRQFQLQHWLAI
Source text: as §1

5-HT1B = 5-HT1B (Homo sapiens, UniProt P28222); assay: 5-HT1B binding
Chain of 5-HT1B (P28222 whole entry, species assumed): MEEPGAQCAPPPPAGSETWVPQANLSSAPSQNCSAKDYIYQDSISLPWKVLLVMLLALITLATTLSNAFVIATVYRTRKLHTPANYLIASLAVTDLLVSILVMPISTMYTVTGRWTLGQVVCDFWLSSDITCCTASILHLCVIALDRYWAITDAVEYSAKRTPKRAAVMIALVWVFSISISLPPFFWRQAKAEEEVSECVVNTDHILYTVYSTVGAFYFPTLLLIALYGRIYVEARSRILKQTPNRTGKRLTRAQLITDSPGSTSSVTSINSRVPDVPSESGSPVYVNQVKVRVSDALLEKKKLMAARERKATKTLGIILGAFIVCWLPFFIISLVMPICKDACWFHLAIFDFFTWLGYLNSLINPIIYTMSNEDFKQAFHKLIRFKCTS
Source text: as §1

5-HT1A = 5-HT1A (Homo sapiens, UniProt P08908); assay: 5-HT1A binding
Chain of 5-HT1A (P08908 whole entry, species assumed): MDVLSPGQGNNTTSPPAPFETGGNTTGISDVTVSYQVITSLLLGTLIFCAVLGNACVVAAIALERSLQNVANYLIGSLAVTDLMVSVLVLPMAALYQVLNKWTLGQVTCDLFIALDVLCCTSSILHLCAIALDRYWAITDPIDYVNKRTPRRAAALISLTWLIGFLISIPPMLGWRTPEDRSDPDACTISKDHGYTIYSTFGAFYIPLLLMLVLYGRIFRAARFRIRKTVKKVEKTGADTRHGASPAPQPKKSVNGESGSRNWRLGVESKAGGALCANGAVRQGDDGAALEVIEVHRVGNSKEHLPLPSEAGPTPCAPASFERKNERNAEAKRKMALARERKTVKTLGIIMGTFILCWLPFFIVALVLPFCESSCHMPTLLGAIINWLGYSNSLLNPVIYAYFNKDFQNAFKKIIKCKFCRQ
Source text: as §1

Dopamine D1 = Dopamine D1 (Homo sapiens, UniProt P21728); assay: Dopamine D1 binding
Source text: as §1

Adrenergic alpha2C = Adrenergic alpha2C (Homo sapiens, UniProt P18825); assay: Adrenergic alpha2C binding
Chain of Adrenergic alpha2C (P18825 whole entry): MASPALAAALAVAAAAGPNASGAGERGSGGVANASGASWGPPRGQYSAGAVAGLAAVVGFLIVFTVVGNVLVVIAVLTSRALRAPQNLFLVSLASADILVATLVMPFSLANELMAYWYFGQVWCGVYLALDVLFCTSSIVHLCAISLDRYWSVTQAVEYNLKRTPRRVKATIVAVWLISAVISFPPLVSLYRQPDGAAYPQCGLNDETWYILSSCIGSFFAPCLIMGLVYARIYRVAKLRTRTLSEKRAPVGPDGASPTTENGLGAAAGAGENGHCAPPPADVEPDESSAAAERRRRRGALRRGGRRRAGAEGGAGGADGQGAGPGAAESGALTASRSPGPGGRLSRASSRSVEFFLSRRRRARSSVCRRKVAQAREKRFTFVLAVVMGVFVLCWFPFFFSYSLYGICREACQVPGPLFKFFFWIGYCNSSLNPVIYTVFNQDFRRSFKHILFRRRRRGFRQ
Source text: as §1

5-HT1D = 5-HT1D (Homo sapiens, UniProt P28221); assay: 5-HT1D binding
Source text: as §1

5-HT7 = 5-HT7 (Homo sapiens, UniProt P34969); assay: 5-HT7 binding
Source text: as §1

Adrenergic alpha2A = Adrenergic alpha2A (Homo sapiens, UniProt P08913); assay: Adrenergic alpha2A binding
Source text: as §1

Dopamine Transporter = Dopamine Transporter (Homo sapiens, UniProt Q01959); assay: Dopamine transporter assay; type: binding
Source text: as §1

[3] = biological target: human recombinant H1 receptor (Homo sapiens, UniProt P35367); assay: H1 competition binding assay ([3H]-Pyrilamine SPA); set-up: expressed in transfected cells
Chain of human recombinant H1 receptor (P35367 whole entry): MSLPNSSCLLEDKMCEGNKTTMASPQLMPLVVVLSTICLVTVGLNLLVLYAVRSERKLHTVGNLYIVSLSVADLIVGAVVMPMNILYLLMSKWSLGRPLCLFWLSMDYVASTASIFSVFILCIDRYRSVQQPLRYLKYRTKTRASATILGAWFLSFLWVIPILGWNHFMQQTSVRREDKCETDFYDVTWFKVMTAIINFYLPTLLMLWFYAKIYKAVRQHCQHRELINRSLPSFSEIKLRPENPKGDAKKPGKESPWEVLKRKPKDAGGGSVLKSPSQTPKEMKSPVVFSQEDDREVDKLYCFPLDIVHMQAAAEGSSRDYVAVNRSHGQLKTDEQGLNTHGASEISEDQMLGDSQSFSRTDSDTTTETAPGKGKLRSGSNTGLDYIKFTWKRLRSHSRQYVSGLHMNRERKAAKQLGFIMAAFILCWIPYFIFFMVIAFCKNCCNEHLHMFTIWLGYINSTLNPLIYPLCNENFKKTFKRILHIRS
Method: [^3H]-Pyrilamine binding experiments are carried out in SPA (scintillation proximity assay) 96-well format. Membranes used in this assay are prepared from HEK-293 cells stably expressing recombinant H1 receptor (human). The incubation is initiated by the addition of a mixture of WGA PVT SPA beads (1 mg/well, Perkin Elmer (MA, USA) RPNQ0001) and 3 μg membranes to assay buffer (67 mM Tris; pH 7.6) containing 3.5 nM [^3H]-Pyrilamine and varying concentrations of the test compound (10 point concentration response curves). Non-specific binding is determined in the presence of 10 μM Triprolidine. Samples are incubated for four hours at room temperature (22° C.) and then read in a Microbeta Trilux.
as §2

Adrenergic alpha2B = Adrenergic alpha2B (Homo sapiens, UniProt P18089); assay: Adrenergic alpha2B binding
Chain of Adrenergic alpha2B (P18089 whole entry): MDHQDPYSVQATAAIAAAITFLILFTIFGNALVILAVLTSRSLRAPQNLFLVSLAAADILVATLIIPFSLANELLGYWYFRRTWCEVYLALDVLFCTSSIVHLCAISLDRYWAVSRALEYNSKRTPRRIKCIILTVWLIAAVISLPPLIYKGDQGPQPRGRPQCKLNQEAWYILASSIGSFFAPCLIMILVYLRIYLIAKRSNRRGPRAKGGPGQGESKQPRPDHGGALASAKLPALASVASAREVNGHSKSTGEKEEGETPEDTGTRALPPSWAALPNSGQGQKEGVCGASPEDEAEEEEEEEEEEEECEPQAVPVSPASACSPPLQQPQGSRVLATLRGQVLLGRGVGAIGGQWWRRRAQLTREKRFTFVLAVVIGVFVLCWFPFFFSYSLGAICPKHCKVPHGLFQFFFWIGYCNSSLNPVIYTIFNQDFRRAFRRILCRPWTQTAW
Source text: as §1

SMILES: CC(C)(CN1CCN(C2=Nc3ccc(Cl)cc3Cn3cc(Cl)cc32)CC1)C(=O)O [Example 19, 3-[4-(2,7-Dichloro-5H-pyrrolo[2,1-c][1,4]benzodiazepin-11-yl)piperazin-1-yl]-2,2-dimethylpropanoic acid dihydrochloride]
- REM sleep inhibition (in words) (Wistar rats): without significant
- cumulative NREM sleep time (in words) (Wistar rats): significantly increase
- cumulative total sleep time (in words) (Wistar rats): significantly increase
- inhibition of locomotor intensity (LMI) (in words) (Wistar rats): without significant
- rebound insomnia (in words) (Wistar rats): without significant

SMILES: CC(C)(CN1CCN(C2=Nc3ccc(Cl)cc3Cn3cc(Br)cc32)CC1)C(=O)O [Example 15, 3-[4-(2-Bromo-7-chloro-5H-pyrrolo[2,1-c][1,4]benzodiazepin-11-yl)piperazin-1-yl]-2,2-dimethylpropanoic acid dihydrochloride]
- REM sleep inhibition (in words) (Wistar rats): without significant
- cumulative NREM sleep time (in words) (Wistar rats): significantly increase
- cumulative total sleep time (in words) (Wistar rats): significantly increase
- inhibition of locomotor intensity (LMI) (in words) (Wistar rats): without significant
- rebound insomnia (in words) (Wistar rats): without significant

SMILES: Cc1cc2n(c1)Cc1cc(Cl)ccc1N=C2N1CCN(CC(C)(C)C(=O)O)CC1 [Example 1, 3-[4-(7-chloro-2-methyl-5H-pyrrolo[2,1-c][1,4]benzodiazepin-11-yl)piperazin-1-yl]-2,2-dimethylpropanoic acid]
- hERG Channel (hERG channel): >100 µM
- pKi (5-HT6): 5.57
- pKi (Adrenergic alpha1B): < 4.96
- pKi (Dopamine D2): < 5.35
- pKi (Dopamine D3): < 5.25
- pKi [1]: 7.24
- pKi (Adrenergic alpha1A): < 5.05
- pKi (5-HT5): < 5.05
- pKi [2]: 5.42
- Serotonin Transporter (Serotonin Transporter): >641
- Norepinephrine Transport (Norepinephrine Transport): >682
- pKi (5-HT1B): < 5.25
- pKi (5-HT1A): < 5.16
- pKi (Dopamine D1): 5.42
- pKi (Adrenergic alpha2C): < 5.40
- pKi (5-HT1D): < 5.40
- pKi (5-HT7): < 5.69
- pKi (Adrenergic alpha2A): < 5.04
- Dopamine Transporter (Dopamine Transporter): >879
- pKi [3]: 7.56
- pKi (Adrenergic alpha2B): < 5.30

SMILES: CCc1cc2n(c1)Cc1cc(Cl)ccc1N=C2N1CCN(CC(C)(C)C(=O)O)CC1 [Example 16, 3-[4-(7-Chloro-2-ethyl-5H-pyrrolo[2,1-c][1,4]benzodiazepin-11-yl)piperazin-1-yl]-2,2-dimethylpropanoic acid dihydrochloride]
- REM sleep inhibition (in words) (Wistar rats): without significant
- cumulative NREM sleep time (in words) (Wistar rats): significantly increase
- cumulative total sleep time (in words) (Wistar rats): significantly increase
- inhibition of locomotor intensity (LMI) (in words) (Wistar rats): without significant
- rebound insomnia (in words) (Wistar rats): without significant

SMILES: CC(C)(CN1CCN(C2=Nc3ccc(Cl)cc3Cn3cc(C(F)(F)F)cc32)CC1)C(=O)O [Example 18, 3-{4-[7-Chloro-2-(trifluoromethyl)-5H-pyrrolo[2,1-c][1,4]benzodiazepin-11-yl]piperazin-1-yl}-2,2-dimethylpropanoic acid dihydrochloride]
- REM sleep inhibition (in words) (Wistar rats): without significant
- cumulative NREM sleep time (in words) (Wistar rats): significantly increase
- cumulative total sleep time (in words) (Wistar rats): significantly increase
- inhibition of locomotor intensity (LMI) (in words) (Wistar rats): without significant
- rebound insomnia (in words) (Wistar rats): without significant
